How the values were obtained:
[1] = system: choroidal neovascularization (CNV) in C57BL/J mice; assay: Laser-induced choroidal neovascularization (CNV) in mice, rupture of Bruch's membrane; type: in vivo, mouse; details: for CNV versus vehicle-injected controls: single 5 μl intravitreal injection, 14 days post-laser
Source text: Choroidal neovascularization (CNV) was induced in C57BL/J mice by rupturing Bruch's membrane via focal laser photocoagulation (FIG. 3). (Tobe T, et al., AM. J. PATHOL., 153:1641-1646 (1998)). Three to four retinal burns were placed in randomly assigned eye using the Alcon 532 nm EyeLite laser (75 μm spot size, 0.1 seconds duration, 120 mW) with a slit lamp delivery system. The laser burns were used to generate a rupture in Bruch's membrane, which was indicated opthalmoscopically by the formation of a bubble under the retina. Only mice with laser burns that produced three bubbles per eye were included in the study. Burns were typically placed at the 3, 6, 9 or 12 o'clock positions in the posterior pole of the retina, avoiding the branch retinal arteries and veins.
Each mouse was randomly assigned into one of the following treatment groups after laser: noninjected controls, sham-injected controls, vehicle-injected mice, or one of three anecortave acetate-injected groups. Control mice received laser photocoagulation in both eyes, where one eye received a sham injection, i.e. a pars plana needle puncture. For intravitreal-injected animals, one laser-treated eye received a 5 μl intravitreal injection of 0%, 0.1%, 1%, or 10% anecortave acetate. The intravitreal injection was performed immediately after laser photocoagulation.
Fourteen days post-laser, all mice were euthanized and systemically perfused with fluorescein-labeled dextran. Eyes were then harvested and prepared as choroidal flat mounts, and the 2-dimensional CNV area was quantified with computerized digital analysis, (Mori K., et al., AM. J. PATHOL. 159:313-320 (2001)). The median CNV area/burn per mouse per treatment was used for statistical analysis; P≦0.05 was considered significant.

[2] = system: posterior segment neovascularization (NV); details: intravitreal injection, rat OIR model (Penn 2001); cited from earlier work
[3] = Clark 1999; cited from earlier work

In the case of `CC(=O)OCC(=O)[C@@]1(O)CC[C@H]2[C@@H]3CCC4=CC(=O)CC[C@]4(C)C3=CC[C@@]21C` [anecortave acetate, 4,9(11)-pregnadien-17α,21-diol-3,20-dione-21-acetate], the “CNV versus vehicle-injected controls” value ([1]; 0.1% anecortave acetate) was “No difference”, the “CNV versus vehicle-injected controls” value ([1]; 1% anecortave acetate) was “No difference” and the “CNV development seen as hyperfluorescent area at the site of laser photocoagulation (FIG. 4)” value ([1]; 10% anecortave acetate versus controls, choroidal flat mounts, fluorescein-labeled dextran) was “gross reduction in CNV development”. The “effect on laser-induced choroidal neovascularization (FIG. 5)” value ([1]; single intravitreal injection in the mouse) was “inhibits laser-induced choroidal neovascularization”, the “efficacy against posterior segment neovascularization (NV)” value [2] was “reproducible efficacy” and the “conventional glucocorticoid (anti-inflammatory) or mineralocorticoid activity” value [3] was “devoid of conventional glucocorticoid (anti-inflammatory) or mineralocorticoid activity”.
